This passage reports TGI and GI50 results from PubChem BioAssay (NCI).

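Each compound was tested at five concentrations against cells in 96-well plates for 48 hours. Here, GI50 denotes the concentration required for 50% inhibition of growth. TGI: concentration producing complete growth inhibition.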

What all share (test): growth of human tumour cells (NCI), 48 h
Test [1] relates to U251 CNS.
The test system of test [2] is OVCAR-4 ovarian.
The subject of test [3] is RPMI-8226 leukemia.
For test [4], the system named is CCRF-CEM leukemia.
The subject of test [5] is EKVX NSCLC.
Test [6] relates to SNB-19 CNS.
The subject of test [7] is KM12 colon.
For test [8], the system named is PC-3 prostate.
The test system of test [9] is UACC-257 melanoma.
Test [10] deals with BT-549 breast.

For the compound `NC(=O)c1ncn(C2OC(CO)C(O)C2O)c1O` (stereo unspecified), the TGI in test [1], in [2], in [3], in [4], in test [5] and in [6] was above 100 µM throughout. This compound also showed a TGI in test [7] above 100 µM.

Take `Cc1c(-c2ccccn2)ccc2ccccc12`: the TGI is above 100 µM in test [1]; above 100 µM in test [8]; 44.1 µM in [3]; above 100 µM in test [4]; above 100 µM in test [9]; above 100 µM in test [5]. In addition, the TGI in [6] and in test [7] was above 100 µM throughout.

Consider `Cc1[nH]c2cc([N+](=O)[O-])ccc2c1[N+](=O)[O-]`, for which the TGI in test [1] stood at 71.2 µM; in test [2] it was 92 µM; in [3], 58.4 µM; in [4], 64.6 µM; in test [9], 43.9 µM; in test [5] it was 49.6 µM. For the same compound, the TGI stood at 56.5 µM in test [6] and 67.6 µM in test [7].

Consider `Clc1ccc(-c2nc(NCc3ccco3)c3ccccc3n2)c(Cl)c1`, for which the GI50 in [1] is 16.5 µM; in test [2] it was 43300 nM; in test [8], 13.9 µM; in test [3], 5640 nM; in test [4], 10500 nM; in [6], 38.4 µM. The GI50 in [7] was 10.2 µM. Besides, the TGI in test [1] was 47.4 µM; in test [2], above 100 µM; in [8], 55.7 µM; in test [3] it was 81.9 µM; in [4], above 100 µM; in test [6], above 100 µM. The TGI in test [7] amounted to 27.3 µM.

Turning to `CN(C)N=Nc1ccc(S(N)(=O)=O)cc1`, the TGI in test [1], in test [2], in test [3], in [4], in [9] and in [5] was above 100 µM each time. Moreover, the TGI in test [6] and in test [7] was above 100 µM throughout.

For `Cn1c(I)c(C#C[Si](C)(C)C)c(=O)[nH]c1=O`, the GI50 in test [1] was 12.8 µM; in [10] it was 3000 nM; in [2], 1970 nM; in [3], 1640 nM; in [4], 1740 nM; in [9], 236 nM. Moreover, the values for the GI50 in [5], in test [6] and in [7] were 10.9 µM, 16 µM and 16.8 µM, respectively. For the same compound, the TGI in [1] worked out at 25.5 µM; in [10], 9.21 µM; in test [2], 3.59 µM; in [3], 4.28 µM; in [4], 3.65 µM; in [9], 3.85 µM. Moreover, the values for the TGI in [5], in [6] and in test [7] were 24.8 µM, 30.1 µM and 32.4 µM, respectively.

Take `N#CC(/C(CCCC(=O)Nc1cccc([N+](=O)[O-])c1)=N\NC(=O)c1c(O)ccc2ccccc12)c1nc2ccccc2s1` (stereo unspecified): the TGI in test [1], in [2], in test [4], in test [9], in test [5] and in test [6] was above 100 µM throughout. Also, the TGI in test [7] was above 100 µM.

For `O=C(CCc1ccccc1)CC1OC(=O)C(Cl)=C1Cl` (stereo unspecified), the TGI in test [1] is 30.4 µM; in test [2], above 100 µM; in [3] it was above 100 µM; in test [4], above 100 µM; in test [9], 41.1 µM; in test [5], 66.1 µM. Besides, the TGI was found to be 38 µM in [6] and 33.8 µM in test [7].

`CN1CCN(c2nc(N)c(Br)c(Cl)n2)CC1`: the TGI in test [2], in test [3], in test [4], in test [9], in [5] and in test [6] was above 100 µM throughout. Besides, in test [7], the TGI was above 100 µM.

As for `COC(=O)[C@@]12C3=NO[C@]1(C(=O)OC)C(O[Si](C)(C)C(C)(C)C)[C@@H](OC(C)=O)[C@@H](OC(C)=O)[C@@H]2[C@@H](OCc1ccccc1)CC3` (stereo partly specified), the TGI in test [1], in test [2], in test [3], in [4], in [9] and in test [5] was above 100 µM each time. Further, the TGI in [6] and in test [7] was above 100 µM throughout.

With `COc1ccc(C(=O)C(C(=O)C(=O)NCCCNC(=O)C(=O)C(C(=O)c2ccc(OC)cc2)c2ccc(OC)cc2)c2ccc(OC)cc2)cc1` (stereo unspecified), the TGI in test [1], in test [2], in test [3], in [4], in test [9] and in [5] was above 100 µM in each case. Also, the TGI in test [6] and in test [7] was above 100 µM in each case.

As for `CC1=C2C=CC(=O)C[C@@]2(C)CCC1`, the TGI in [1], in [2], in test [3], in [4], in [9] and in test [5] was above 100 µM each time. In addition, the TGI in test [6] and in [7] was above 100 µM in each case.

As for `CCOC(=O)C1C(=O)CC(=O)C2CCCCC21` (stereo unspecified), the TGI in test [1], in test [2], in [3], in test [4], in [9] and in test [5] was above 100 µM throughout. The TGI in test [6] and in test [7] was above 100 µM each time.

Turning to `CC(=O)[CH-]C(=O)c1ccccc1.CC(=O)[CH-]C(=O)c1ccccc1.CC(=O)[CH-]C(=O)c1ccccc1.[Ga+3]`, the GI50 is 12.7 µM in test [1]; 17100 nM in [2]; 12100 nM in test [3]; 4390 nM in test [4]; 16200 nM in [9]; 22.7 µM in [5]. Also, the results for the GI50 in test [6] and in test [7] were 39.1 µM and 16.8 µM, respectively. In addition, the TGI in [1] was found to be 25.8 µM; in [2] it was 34.5 µM; in test [3] it was 37.1 µM; in test [4] it was 35.7 µM; in test [9] it was 31.5 µM; in [5] it was 57.6 µM. Further, the TGI in test [6] was above 100 µM; in [7] it was 31.1 µM.

Regarding `O=C(N/C(=C\c1ccc(/C=C(\NC(=O)c2ccccc2)c2nc3c(O)nc(S)nc3[nH]2)cc1)c1nc2c(O)nc(S)nc2[nH]1)c1ccccc1`, the TGI in test [1], in test [2], in test [3], in test [4], in test [9] and in [5] was above 100 µM throughout. Moreover, the TGI in test [6] and in test [7] was above 100 µM in each case.

On to `N#Cc1ccc(C2SCc3nc4ccccc4n32)cc1` (stereo unspecified), for which the TGI in test [1], in test [2], in test [3], in [4], in test [9] and in [5] was above 100 µM throughout. Besides, the TGI in test [6] and in [7] was above 100 µM in each case.

On to `CC(=O)C1C(=O)C(=O)N(CCN2C(=O)C(=O)C(C(C)=O)C2=O)C1=O` (stereo unspecified), for which the TGI in test [1], in test [2], in test [3], in test [9], in test [5] and in test [6] was above 100 µM each time. In addition, in test [7], the TGI was above 100 µM.

With `CN(C)c1ccc2[nH]c3c(C(N)=O)cc(=O)c(=O)c=3oc2c1`, the GI50 is 1.8 µM in test [1]; 1670 nM in test [2]; 2.77 µM in [8]; 502 nM in [3]; 472 nM in test [4]; 1770 nM in test [9]. The figures for the GI50 in [5], in test [6] and in test [7] were 3.36 µM, 2.34 µM and 3.33 µM, respectively. For the same compound, the TGI in test [1] is 9.8 µM; in test [2] it was 6.42 µM; in test [8] it was above 100 µM; in test [3], above 100 µM; in test [4], above 100 µM; in test [9], 6.18 µM. Besides, the TGI in test [5] was 61.6 µM; in [6], 9.81 µM; in test [7], above 100 µM.

For the compound `COc1ccc2nc3ccccc3c(NCCCCN(CCCl)CCCl)c2c1`, the TGI in test [1] was 1.83 µM; in test [2], 0.542 µM; in [8], 7.56 µM; in test [3], 0.943 µM; in test [9], 3.34 µM; in test [6], 7.9 µM. Further, in [7], the TGI turned out to be 3.48 µM.

As for `CC(=O)CC(=O)Nc1ccccc1C(F)(F)F`, the TGI in test [1], in [2], in test [3], in test [4], in test [5] and in test [6] was above 100 µM throughout.

Regarding `CCN(CC)C(=S)SS(C)(=O)=O`, the TGI came to 31.5 µM in [1]; 34.7 µM in test [2]; 52.3 µM in [9]; 75.8 µM in test [5]; 58.4 µM in test [6]; 31.7 µM in [7].

For `CSc1nnc(C(C#N)C#N)nn1`, the TGI in [1], in [2], in test [3], in [4], in test [9] and in test [5] was above 100 µM throughout. For the same compound, the TGI in test [6] and in test [7] was above 100 µM throughout.

As for `COC1/C(=C\C(C)=O)c2ccccc2N1C(C)=O` (stereo unspecified), the TGI in test [1], in [2], in test [3], in test [4], in test [9] and in [5] was above 100 µM each time. For the same compound, the TGI in test [6] and in [7] was above 100 µM each time.

As to `CCN(CC)c1ccc(C2N3CCCCC3[C@@H]3c4[nH]c5ccccc5c4CCN23)cc1` (stereo partly specified), the TGI in [1] was above 100 µM; in [2], above 100 µM; in test [3] it was above 100 µM; in test [4], 63.9 µM; in [9], 77.8 µM; in test [5], above 100 µM. In [6], this compound registered a TGI above 100 µM.

As for `O=C1/C(=C/c2ccc(C(F)(F)F)cc2)COc2ccc(O)c(O)c21`, the GI50 in test [1] was 0.703 µM; in test [10] it was 1860 nM; in [2], 1390 nM; in test [3], 238 nM; in [4], 335 nM; in test [9], 1580 nM. For the same compound, the GI50 is 1.61 µM in test [5], 1.48 µM in [6] and 1.7 µM in [7]. The TGI in test [1] amounted to 2.05 µM; in test [10], 3.58 µM; in test [2], 2.72 µM; in [3], 0.607 µM; in test [4] it was 2.25 µM; in [9], 3.46 µM. Besides, the TGI in test [5] came out at 2.99 µM; in [6], 2.87 µM; in [7], 3.84 µM.

On to `Cc1cc(Br)ccc1N=Nc1c(C)nn(-c2ccccc2)c1-c1ccccc1`, for which the TGI in test [1], in test [2], in test [3], in [4], in test [9] and in [5] was above 100 µM throughout. The TGI in [6] and in test [7] was above 100 µM throughout.

In the case of `COc1ccc(/C=C/c2ccnc3ccccc23)cc1OC`, the TGI in test [1] was above 100 µM; in test [2] it was 24.8 µM; in [8], 36.4 µM; in test [3] it was 57.1 µM; in test [4] it was 31 µM; in test [9], 37.6 µM. In addition, the figures for the TGI in test [5], in test [6] and in test [7] were 27.9 µM, 31.2 µM and 30.8 µM, respectively.

Take `COc1cc(O)c(C(=O)/C=C/c2ccc(OC)c(OCc3ccccc3)c2)c(OC)c1`: the TGI in test [1], in [2], in test [3], in [4], in test [9] and in [5] was above 100 µM each time. Also, the TGI in test [6] and in test [7] was above 100 µM each time.

On to `O=C1C=CC(=O)c2c1nc(CBr)[nH]c2=O`, for which the TGI in [1], in [2], in test [8], in [3], in [9] and in test [5] was above 100 µM throughout. In test [7], the TGI was above 100 µM.
